Source: article PMC11125359 (Pharmaceuticals, 2024)
Like-named read-outs stand apart in the source and are kept apart here.

Legend:
caspase-3 [1] = assay: Caspase-3 ELISA in treated A549 cells; assay type: cell-based, human; conditions: DMSO control 85.92 ± 0.12
α-glucosidase = assay: α-Glucosidase inhibition (anti-diabetic); assay type: biochemical; conditions: equal concentrations (1000 µg/mL); mean ± SE
caspase-3 [2] = assay: Caspase-3 ELISA in treated Caco-2 cells; assay type: cell-based, human; conditions: DMSO control 97.06 ± 0.14
[3] = ABTS radical scavenging assay; conditions: equal concentrations (1000 µg/mL); mean ± SE
Description: (§1) All in vitro biological activities were assessed in the tested compounds at equal concentrations (1000 µg/mL). All assays were carried out in triplicate.
In vitro biological activities
(§2) The total antioxidant capacity (TAC) was determined by analyzing the green phosphate/Mo5+ complex at a wavelength (λ) of 695 nm, following the procedure described by Prieto
(§3) et al. Samples (at each concentration) were mixed with a reagent solution containing 0.3 N sulfuric
(§4) acid, 28 mM sodium phosphate, and 4 mM ammonium molybdate. Methanol (80%) was used in place
(§5) of the sample for the blank. The tubes were sealed and incubated in a boiling water bath for 90
(§6) minutes. After cooling to room temperature, the absorbance was measured at 695 nm against the
(§7) blank. Ascorbic acid was used at the same concentrations as a standard. The antioxidant capacity was
(§8) expressed as mg gallic acid equivalent per gram weight.
(§9) The iron reducing power was determined as µg/mL using the method proposed by Oyaizu
(§10) In brief, 1ml of the tested sample (at each concentration) was combined with 1mL of 200mM
(§11) sodium phosphate buffer (pH 6.6) and 1mL of 1% potassium ferricyanide. The mixture was then
(§12) incubated at 50°C for 20 minutes, followed by the addition of 1mL of trichloroacetic acid (10%). After
(§13) centrifugation at 2000rpm for 10 minutes, the upper layer solution (2.5 mL) was mixed with 2.5 mL of double deionized water and 1mL of fresh ferric chloride (0.1%). The absorbance was measured at
(§14) 700nm against a blank prepared without the sample. Ascorbic acid was used at the same
(§15) concentrations as a standard. A high absorbance at 700nm indicates a higher reducing power in the
(§16) The 1,1-Diphenyl-2-picryl-hydrazyl (DPPH) radical scavenging activities were evaluated using the method described by Rahman et al. An antioxidant substance capable of donating a
(§17) hydrogen atom to a solution containing DPPH- can reduce the stable free radical, causing the solution
(§18) to change color from violet to pale yellow. The remaining DPPH- radical was quantified by
(§19) nm using a spectroscopic method. Two milliliters of a DPPH solution (100 µM) in ethanol were mixed
(§20) with 2 mL of the sample (at each concentration). The reaction mixture for each concentration was
(§21) thoroughly vortexed and then incubated in the dark at room temperature for 30 minutes. The
(§22) absorbance was then measured spectrophotometrically at 518 nm against a blank (ethanol). For the
(§23) control, 2 mL of ethanol was added instead of the sample and run simultaneously with the test.
(§24) Ascorbic acid was used at the same concentrations as a positive control. Percent inhibition of the
(§25) DPPH free radical was calculated. The median inhibitory concentration (IC 50) for each tested
(§26) The procedure for the 2,2'-azinobis-(3-ethylbenzothiazoline-6-sulfonic acid) (ABTS) assay
(§27) potassium persulfate solution (2.4 mM). The working solution was prepared by mixing the two stock
(§28) solutions in equal quantities and allowing them to react at room temperature in a dark place for 14
(§29) hours. The solution was then diluted by mixing 1 mL of ABTS solution with 60 mL of methanol to
(§30) was prepared for each assay. The tested samples (at each concentration) were allowed to react with 1
(§31) mL of the ABTS solution, and the absorbance was taken at 734 nm after 7 minutes using a
(§32) spectrophotometer. The ABTS scavenging capacities of the samples were compared with that of
(§33) ascorbic acid (at the same concentrations).

[4] = Iron-reducing power (IRP); conditions: equal concentrations (1000 µg/mL); mean ± SE, three replicates
Description: as §1
In vitro biological activities
as §2, §3, §4, §5, §6, §7, §8, §9, §10, §11, §12, §13, §14, §15, §16, §17, §18, §19, §20, §21, §22, §23, §24, §25, §26, §27, §28, §29, §30, §31, §32, §33

[5] = Cytotoxic activity, MTT assay, normal lung (WI-38); assay type: cell-based; conditions: human
[6] = target: acetylcholinesterase (AChE) (Homo sapiens, UniProt P22303); assay: biochemical; conditions: same concentration (1000 µg/mL); mean ± SE
Chain of acetylcholinesterase (AChE) (P22303 32-614, species assumed): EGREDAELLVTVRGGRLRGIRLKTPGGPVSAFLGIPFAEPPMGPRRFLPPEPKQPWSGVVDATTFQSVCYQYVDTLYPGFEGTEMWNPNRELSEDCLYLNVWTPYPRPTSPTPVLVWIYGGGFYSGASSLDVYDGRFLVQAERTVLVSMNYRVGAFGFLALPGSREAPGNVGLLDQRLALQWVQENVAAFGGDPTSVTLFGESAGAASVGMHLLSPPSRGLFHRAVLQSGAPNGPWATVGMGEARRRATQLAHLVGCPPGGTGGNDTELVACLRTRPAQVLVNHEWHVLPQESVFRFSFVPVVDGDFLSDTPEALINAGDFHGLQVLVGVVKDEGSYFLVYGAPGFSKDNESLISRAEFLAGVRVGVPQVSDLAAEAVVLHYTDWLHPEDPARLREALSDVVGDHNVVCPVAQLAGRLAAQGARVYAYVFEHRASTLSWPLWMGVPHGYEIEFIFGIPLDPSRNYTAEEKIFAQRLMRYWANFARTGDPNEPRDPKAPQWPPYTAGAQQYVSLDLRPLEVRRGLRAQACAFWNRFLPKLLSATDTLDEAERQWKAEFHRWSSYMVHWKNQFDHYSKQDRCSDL

Bcl-2 [7] = assay: Bcl-2 ELISA in treated Caco-2 cells; assay type: cell-based, human; conditions: DMSO control 7.99 ± 0.08
α-amylase = assay: α-Amylase inhibition (anti-diabetic); assay type: biochemical; conditions: equal concentrations (1000 µg/mL); mean ± SE
[8] = DPPH radical-scavenging activity; conditions: read-out: DPPH (IC50); mean ± SE, three replicates
Description: In vitro biological activities
as §16, §17, §18, §19, §20, §21, §22, §23, §24, §25

[9] = Total antioxidant capacity (TAC), phosphomolybdenum method; conditions: equal concentrations (1000 µg/mL); mean ± SE, three replicates
Description: as §1
In vitro biological activities
as §2, §3, §4, §5, §6, §7, §8, §9, §10, §11, §12, §13, §14, §15, §16, §17, §18, §19, §20, §21, §22, §23, §24, §25, §26, §27, §28, §29, §30, §31, §32, §33

[10] = tested on: human lung cancer (A549) cell line; assay: Cytotoxic activity, MTT assay, lung (A549); conditions: for Viability %, A549, 1st concentration: Conc.: 5a 13.45, 5d 12.64, 5e 12.29, 5f 11.81, 7a 12.72, 7f 11.24, DOX 11.50; for Viability %, A549, 2nd concentration: Conc.: 5a 26.91, 5d 25.27, 5e 24.58, 5f 23.63, 7a 25.43, 7f 22.48, DOX 23.00; for Viability %, A549, 3rd concentration: Conc.: 5a 53.81, 5d 50.55, 5e 49.15, 5f 47.26, 7a 50.86, 7f 44.96, DOX 46.00; for Viability %, A549, 4th concentration: Conc.: 5a 107.63, 5d 101.09, 5e 98.31, 5f 94.51, 7a 101.72, 7f 89.93, DOX 91.99; for Viability %, A549, 5th concentration: Conc.: 5a 215.26, 5d 202.19, 5e 196.61, 5f 189.03, 7a 203.44, 7f 179.85, DOX 183.99; for IC50: Homo sapiens, A549, 48 h, read-out: Cytotoxic activity IC50, Lung (A549)
Description: (§34) It will be assayed against human lung cancer (A549) and colon (Caco-2) cell line in
(§35) comparison with normal lung (WI-38) cell line using 3-(4,5-dimethythiazol-2-yl)-2,5-diphenyl
(§36) tetrazolium bromide (MTT) assay by determining the optical density (OD) at 570 nm according to the
(§37) The cells were dispensed in a 96-well sterile microplate (3
(§38) µL of each compound or doxorubicin (positive control, in DMSO) for 48 h in a serum free medium
(§39) prior to the MTT assay. Subsequently, the media were carefully removed, and 40 µL of MTT (2.5
(§40) mg/mL) was added to each well and then incubated for an additional 4 h. Purple formazan dye
(§41) crystals were solubilized by the addition of 200 µL of DMSO. The absorbance was measured at 570 nm using a SpectraMax Paradigm Multi-Mode microplate reader. The relative cell viability was
(§42) experiments were conducted in triplicate. Percent of the cell-growth inhibition (%) and the IC 50 was
(§43) calculated using IC 50 calculation software. The concentrations used for calculating the IC 50 depend on

[11] = target: bovine serum albumin (BSA) (Bos taurus, UniProt P02769); conditions: equal concentrations (1000 µg/mL); mean ± SE
Chain of bovine serum albumin (BSA) (P02769 25-607): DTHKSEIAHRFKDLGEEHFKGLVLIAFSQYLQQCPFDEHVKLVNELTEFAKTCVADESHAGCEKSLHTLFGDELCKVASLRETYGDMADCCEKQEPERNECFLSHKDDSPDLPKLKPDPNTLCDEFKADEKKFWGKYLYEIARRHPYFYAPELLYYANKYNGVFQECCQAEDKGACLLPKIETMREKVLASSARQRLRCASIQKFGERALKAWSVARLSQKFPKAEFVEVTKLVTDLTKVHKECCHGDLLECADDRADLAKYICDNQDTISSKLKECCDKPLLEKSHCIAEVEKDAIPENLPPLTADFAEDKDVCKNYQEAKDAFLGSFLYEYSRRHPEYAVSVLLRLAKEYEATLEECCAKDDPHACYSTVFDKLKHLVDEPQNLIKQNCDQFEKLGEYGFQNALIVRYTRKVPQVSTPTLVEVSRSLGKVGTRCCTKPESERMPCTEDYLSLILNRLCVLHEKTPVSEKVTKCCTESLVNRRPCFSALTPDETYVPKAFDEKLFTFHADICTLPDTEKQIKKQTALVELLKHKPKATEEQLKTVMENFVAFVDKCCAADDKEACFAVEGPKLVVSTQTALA

[12] = tested on: proteinase enzyme (trypsin); assay: Proteinase enzyme inhibition (anti-inflammatory); assay type: biochemical; conditions: equal concentrations (1000 µg/mL); mean ± SE
[13] = tested on: human colon cancer (Caco-2) cell line; assay: cells; assay type: cell-based; conditions: for IC50: Homo sapiens, read-out: Cytotoxic activity IC50, Colon (Caco-2)
Bcl-2 [14] = assay: Bcl-2 ELISA in treated A549 cells; assay type: cell-based, human; conditions: DMSO control 9.83 ± 0.05
[15] = tested on: human lung cancer (A549) cell line; conditions: 48 h
Description: as §34, §35, §36, §37, §38, §39, §40, §41, §42, §43

[16] = WI-38 normal lung cells, Conc. as printed: 5a 53.81, 5d 50.55, 5e 49.15, 5f 47.26, 7a 50.86, 7f 44.96, DOX 46.00, read-out: Viability %, WI-38, 3rd concentration
[17] = WI-38 normal lung cells, Conc. as printed: 5a 107.63, 5d 101.09, 5e 98.31, 5f 94.51, 7a 101.72, 7f 89.93, DOX 91.99, read-out: Viability %, WI-38, 4th concentration
[18] = WI-38 normal lung cells, Conc.: 5a 13.45, 5d 12.64, 5e 12.29, 5f 11.81, 7a 12.72, 7f 11.24, DOX 11.50, read-out: Viability %, WI-38, 1st concentration
[19] = WI-38 normal lung cells, Conc.: 5a 26.91, 5d 25.27, 5e 24.58, 5f 23.63, 7a 25.43, 7f 22.48, DOX 23.00, read-out: Viability %, WI-38, 2nd concentration
[20] = WI-38 normal lung cells, Conc.: 5a 215.26, 5d 202.19, 5e 196.61, 5f 189.03, 7a 203.44, 7f 179.85, DOX 183.99, read-out: Viability %, WI-38, 5th concentration
[21] = WI-38 normal lung cells, 48 h, MTT, mean ± SE, read-out: Cytotoxic activity IC50, Normal Lung (WI-38)
[22] = Conc.: 5a 13.45, 5d 12.64, 5e 12.29, 5f 11.81, 7a 12.72, 7f 11.24, DOX 11.50
[23] = Conc.: 5a 26.91, 5d 25.27, 5e 24.58, 5f 23.63, 7a 25.43, 7f 22.48, DOX 23.00
[24] = Conc.: 5a 53.81, 5d 50.55, 5e 49.15, 5f 47.26, 7a 50.86, 7f 44.96, DOX 46.00
[25] = Conc.: 5a 107.63, 5d 101.09, 5e 98.31, 5f 94.51, 7a 101.72, 7f 89.93, DOX 91.99
[26] = Conc.: 5a 215.26, 5d 202.19, 5e 196.61, 5f 189.03, 7a 203.44, 7f 179.85, DOX 183.99
[27] = IC50 on normal cells (WI-38)/IC50 on Caco-2

Compound	Caspase-3 level, Lung (A549) (caspase-3 [1]) [pg/mL]	Inhibition (%) α-Glucosidase (α-glucosidase) [%]	Caspase-3 level, Colon (Caco-2) (caspase-3 [2]) [pg/mL]	ABTS (%) inhibition [3] [%]	Iron-Reducing Power (IRP) [4] [µg/mL]	viability at 48 h [5, 16] [%]	viability at 48 h [5, 17] [%]	viability at 48 h [5, 18] [%]	viability at 48 h [5, 19] [%]	viability at 48 h [5, 20] [%]	IC50 at 48 h [5, 21] [µM]	inhibition at 1000 µg/mL [6] [%]	Bcl-2 level, Colon (Caco-2) (Bcl-2 [7]) [ng/mL]	Inhibition (%) α-Amylase (α-amylase) [%]	IC50 [8] [µM]	Total Antioxidant Capacity (TAC) [9] [mg Gallic Acid/g]	Viability %, A549, 1st concentration [10] [%]	Viability %, A549, 2nd concentration [10] [%]	IC50 [10] [µM]	Bcl-2 level, Lung (A549) (Bcl-2 [14]) [ng/mL]	other results
COc1ccc(Nc2n[nH]c(N=Cc3ccc(N4CCCCC4)cc3)c2C(=O)Nc2ccc(Cl)cc2)cc1 [5f]	236.29 ± 0.33	27.33 ± 0.05	266.92 ± 0.39	76.74 ± 0.05	34.85 ± 0.07	76	60.7	87.9	82	44.8	493 ± 9.88	42.76 ± 0.03	2.91 ± 0.03	31.77 ± 0.05	22.83 ± 0.01	53.14 ± 0.20	97.46	87.31	60.45 ± 0.12	3.57 ± 0.02	Viability %, A549, 3rd concentration [10]: 60.91%; Viability %, A549, 4th concentration [10]: 46.48%; Viability %, A549, 5th concentration [10]: 20.20%; Inhibition (%) Protein Denaturation [11]: 27.28 ± 0.03%; Inhibition (%) Proteinase [12]: 23.72 ± 0.03%; Viability %, Caco-2, 1st concentration [13, 22]: 89.43%; Viability %, Caco-2, 2nd concentration [13, 23]: 80.91%; Viability %, Caco-2, 3rd concentration [13, 24]: 61.88%; Viability %, Caco-2, 4th concentration [13, 25]: 39.72%; Viability %, Caco-2, 5th concentration [13, 26]: 32.34%; IC50 ([13]; Caco-2, 48 h, MTT, mean ± SE): 61.98 ± 0.12 µM; Therapeutic Index (TI), Colon (Caco-2) [13, 27]: 7.95
Cc1c(C=Nc2[nH]nc(Nc3ccccc3)c2C(=O)Nc2ccccc2)c(=O)n(-c2ccccc2)n1C [7a]	322.21 ± 0.45	26.91 ± 0.05	363.98 ± 0.54	75.59 ± 0.05	34.33 ± 0.07	82.7	76.8	98.7	90.7	62.7	736 ± 7.95	42.12 ± 0.03	2.13 ± 0.02	31.30 ± 0.05	24.94 ± 0.01	52.34 ± 0.19	90.96	79.91	49.4 ± 0.18	2.62 ± 0.01	Viability %, A549, 3rd concentration [10]: 48.51%; Viability %, A549, 4th concentration [10]: 37.08%; Viability %, A549, 5th concentration [10]: 18.60%; Inhibition (%) Protein Denaturation [11]: 26.87 ± 0.03%; Inhibition (%) Proteinase [12]: 23.37 ± 0.03%; Viability %, Caco-2, 1st concentration [13, 22]: 70.21%; Viability %, Caco-2, 2nd concentration [13, 23]: 50.65%; Viability %, Caco-2, 3rd concentration [13, 24]: 40.04%; Viability %, Caco-2, 4th concentration [13, 25]: 26.27%; Viability %, Caco-2, 5th concentration [13, 26]: 22.93%; IC50 ([13]; Caco-2, 48 h, MTT, mean ± SE): 42.42 ± 0.18 µM; Therapeutic Index (TI), Colon (Caco-2) [13, 27]: 17.35
COc1ccc(Nc2n[nH]c(N=Cc3c(C)n(C)n(-c4ccccc4)c3=O)c2C(=O)Nc2ccc(Cl)cc2)cc1 [7f]	244.88 ± 0.34	27.79 ± 0.05	276.62 ± 0.41	78.05 ± 0.05	35.45 ± 0.07	79.3	73.3	95.2	87.2	59.2	543 ± 8.52	62.11 ± 0.04	2.80 ± 0.03	32.31 ± 0.05	21.37 ± 0.01	54.04 ± 0.20	96.21	86.06	55.74 ± 0.24	3.45 ± 0.02	Inhibition (%) Acetylcholinesterase [6]: 62.00 ± 0.04%; Viability %, A549, 3rd concentration [10]: 59.66%; Viability %, A549, 4th concentration [10]: 45.23%; Viability %, A549, 5th concentration [10]: 18.95%; Inhibition (%) Protein Denaturation [11]: 27.75 ± 0.03%; Inhibition (%) Proteinase [12]: 24.13 ± 0.03%; Viability %, Caco-2, 1st concentration [13, 22]: 81.68%; Viability %, Caco-2, 2nd concentration [13, 23]: 73.16%; Viability %, Caco-2, 3rd concentration [13, 24]: 54.13%; Viability %, Caco-2, 4th concentration [13, 25]: 31.97%; Viability %, Caco-2, 5th concentration [13, 26]: 24.59%; IC50 ([13]; Caco-2, 48 h, MTT, mean ± SE): 49.01 ± 0.24 µM; Therapeutic Index (TI), Colon (Caco-2) [13, 27]: 11.06
COc1cccc2c1C(=O)c1c(O)c3c(c(O)c1C2=O)C[C@@](O)(C(=O)CO)C[C@@H]3O[C@H]1C[C@H](N)[C@H](O)[C@H](C)O1 [Doxorubicin, reference compound]	330.80 ± 0.46																		36.45 ± 0.16	2.55 ± 0.01	IC50 at 48 h [5]: 305 ± 4.72 µM; viability at 48 h ([5]; Viability %, WI-38, 1st concentration): 77.5%; viability at 48 h ([5]; Viability %, WI-38, 2nd concentration): 69.1%; viability at 48 h ([5]; Viability %, WI-38, 3rd concentration): 62.3%; viability at 48 h ([5]; Viability %, WI-38, 4th concentration): 52.7%; viability at 48 h ([5]; Viability %, WI-38, 5th concentration): 38.5%; Viability %, A549, 1st concentration [15]: 80.86%; Viability %, A549, 2nd concentration [15]: 69.31%; Viability %, A549, 3rd concentration [15]: 36.91%; Viability %, A549, 4th concentration [15]: 18.92%; Viability %, A549, 5th concentration [15]: 11.20%; Therapeutic Index (TI), Colon (Caco-2) ([13]; Caco-2): 5.55; IC50 ([13]; Caco-2, 48 h): 54.94 ± 0.16 µM; Viability %, Caco-2, 1st concentration ([13]; human, Caco-2, 48 h): 72.32%; Viability %, Caco-2, 2nd concentration ([13]; human, Caco-2, 48 h): 50.77%; Viability %, Caco-2, 3rd concentration ([13]; human, Caco-2, 48 h): 41.86%; Viability %, Caco-2, 4th concentration ([13]; human, Caco-2, 48 h): 23.02%; Viability %, Caco-2, 5th concentration ([13]; human, Caco-2, 48 h): 20.05%
